Data taken from article PMC9095466 (Nature, 2022).
“And” between values parts separate entries of the source, which are not always exact repeats. Equal entries are not always repeated. Where two headings read alike, the source gives them in different places.

Tests used:
[1] = target: human TMPRSS2 (Homo sapiens, UniProt O15393); assay: cell-based; details: for inhibition at 0.01 µM: Vero C1008, 10 nM compound, 24 h, vs untreated/vehicle TMPRSS2-expressing Vero E6 cells, read-out: inhibition of TMPRSS2 activity (reduction of substrate proteolysis); for TMPRSS2 relative activity: technical duplicates
[2] = target: T1, Recombinant human DESC1 (Homo sapiens, UniProt Q9UL52); assay: Protease selectivity, Ki on recombinant protease; assay type: biochemical; details: mean ± s.d., max concentration 10 µM; read-out: Ki DESC1
T1 construct: made in house
T1 sequence (Q9UL52 1-423): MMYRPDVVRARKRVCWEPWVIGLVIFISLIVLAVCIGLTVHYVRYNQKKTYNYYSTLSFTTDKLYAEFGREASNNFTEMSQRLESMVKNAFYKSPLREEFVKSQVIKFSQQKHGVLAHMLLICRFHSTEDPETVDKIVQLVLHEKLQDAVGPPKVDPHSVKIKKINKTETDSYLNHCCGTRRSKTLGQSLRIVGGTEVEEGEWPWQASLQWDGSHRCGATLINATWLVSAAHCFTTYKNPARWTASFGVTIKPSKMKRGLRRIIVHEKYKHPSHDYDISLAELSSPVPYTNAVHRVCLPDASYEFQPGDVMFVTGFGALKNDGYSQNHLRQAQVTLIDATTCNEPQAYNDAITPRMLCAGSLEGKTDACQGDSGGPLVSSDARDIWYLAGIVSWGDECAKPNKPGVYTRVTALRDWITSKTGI

[3] = target: T2, Recombinant human furin (Homo sapiens, UniProt P09958); assay: Protease selectivity, Ki on recombinant protease; assay type: biochemical; details: mean ± s.d., max concentration 10 µM; read-out: Ki Furin
T2 construct: purchased Bio-Techne

[4] = target: T3, human cathepsin L (Homo sapiens, UniProt P07711); assay: Protease selectivity, Ki on protease; assay type: biochemical; details: mean ± s.d., max concentration 10 µM; read-out: Ki Cathepsin L
T3 construct: purchased Bio-Techne

[5] = tested on: SARS-CoV-2 lineage B strain (VIDO); assay: microbe, parasite or virus in culture; assay type: cell-based; details: for Nucleocapsid / dsRNA: Figure 2a, two replicates; for Nucleocapsid: DMSO control about 91-94; for dsRNA: DMSO control about 93-95; for EC50 / inhibition at 0.1 µM: Severe acute respiratory syndrome coronavirus 2, Calu-3; for EC50: read-out: SARS-CoV-2 VIDO Nucleocapsid EC50 ± SE; for inhibition at 0.1 µM: read-out: inhibition of SARS-CoV-2 infection
[6] = tested on: SARS-CoV-2 B.1.617.2 (Delta); assay: microbe, parasite or virus in culture; assay type: cell-based; details: India
[7] = Cytotoxicity CC50 in Calu-3 lung epithelial cells; assay type: cell-based, human; details: human; for viability at 24 h, 300 µM: Log [inhibitor] -3.52; for viability at 24 h, 100 µM: Log [inhibitor] -4.00; for viability at 24 h, 30 µM: Log [inhibitor] -4.52; for viability at 24 h, 10 µM: Log [inhibitor] -5.00; for viability at 24 h, 3 µM: Log [inhibitor] -5.52; for viability at 24 h, 0.3 µM: Log [inhibitor] -6.52; for viability at 24 h, 0.03 µM: Log [inhibitor] -7.52; for viability at 24 h, 0.003 µM: Log [inhibitor] -8.52
[8] = tested on: SARS-CoV-2 (VIDO); assay: microbe, parasite or virus in culture; assay type: cell-based; details: colonoids pretreated 3 h with 100 nM, infected 3 days, vs DMSO-treated
[9] = target: T4, Recombinant human matriptase (Homo sapiens, UniProt Q9Y5Y6); assay: Protease selectivity, Ki on recombinant protease; assay type: biochemical; details: mean ± s.d., max concentration 10 µM; read-out: Ki Matriptase
T4 construct: made in house
T4 sequence (Q9Y5Y6 1-855): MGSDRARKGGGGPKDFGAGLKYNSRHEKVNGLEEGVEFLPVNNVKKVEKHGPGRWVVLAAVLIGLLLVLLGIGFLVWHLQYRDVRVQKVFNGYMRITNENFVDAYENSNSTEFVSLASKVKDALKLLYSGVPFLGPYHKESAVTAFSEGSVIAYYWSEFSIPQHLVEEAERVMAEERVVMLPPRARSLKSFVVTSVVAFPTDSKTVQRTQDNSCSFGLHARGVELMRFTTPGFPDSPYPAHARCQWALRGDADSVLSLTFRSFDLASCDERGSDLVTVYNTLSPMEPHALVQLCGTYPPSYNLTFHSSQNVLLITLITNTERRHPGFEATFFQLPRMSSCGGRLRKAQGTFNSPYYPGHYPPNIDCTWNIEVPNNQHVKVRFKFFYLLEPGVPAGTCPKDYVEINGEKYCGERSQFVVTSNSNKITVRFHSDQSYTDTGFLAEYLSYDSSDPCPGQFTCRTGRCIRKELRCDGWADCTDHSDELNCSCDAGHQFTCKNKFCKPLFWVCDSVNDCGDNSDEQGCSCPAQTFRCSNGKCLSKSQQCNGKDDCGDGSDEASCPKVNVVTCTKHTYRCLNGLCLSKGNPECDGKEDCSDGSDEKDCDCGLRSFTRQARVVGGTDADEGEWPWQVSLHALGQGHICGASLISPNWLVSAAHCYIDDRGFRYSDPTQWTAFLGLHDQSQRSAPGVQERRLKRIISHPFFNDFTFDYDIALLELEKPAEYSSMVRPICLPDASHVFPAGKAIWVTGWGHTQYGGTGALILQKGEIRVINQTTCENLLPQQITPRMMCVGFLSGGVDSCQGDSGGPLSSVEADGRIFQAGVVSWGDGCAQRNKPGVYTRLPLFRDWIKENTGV

[10] = target: T5, Recombinant human hepsin (Homo sapiens, UniProt P05981); assay: Protease selectivity, Ki on recombinant protease; assay type: biochemical; details: mean ± s.d., max concentration 10 µM; read-out: Ki Hepsin
T5 construct: made in house

[11] = target: T6, human thrombin (Homo sapiens, UniProt P00734); assay: Protease selectivity, Ki on protease; assay type: biochemical; details: mean ± s.d., max concentration 10 µM; read-out: Ki Thrombin
T6 construct: purchased MilliporeSigma

[12] = tested on: Calu-3 cells; assay: Cytotoxicity CC50 in Calu-3 lung epithelial cells; assay type: cell-based, human; details: single replicates
[13] = Calu-3 cells, read-out: % of Viability, Average (n=2)
[14] = Calu-3 cells, single replicates, read-out: % of Viability

Sequence of human TMPRSS2 (O15393 whole entry): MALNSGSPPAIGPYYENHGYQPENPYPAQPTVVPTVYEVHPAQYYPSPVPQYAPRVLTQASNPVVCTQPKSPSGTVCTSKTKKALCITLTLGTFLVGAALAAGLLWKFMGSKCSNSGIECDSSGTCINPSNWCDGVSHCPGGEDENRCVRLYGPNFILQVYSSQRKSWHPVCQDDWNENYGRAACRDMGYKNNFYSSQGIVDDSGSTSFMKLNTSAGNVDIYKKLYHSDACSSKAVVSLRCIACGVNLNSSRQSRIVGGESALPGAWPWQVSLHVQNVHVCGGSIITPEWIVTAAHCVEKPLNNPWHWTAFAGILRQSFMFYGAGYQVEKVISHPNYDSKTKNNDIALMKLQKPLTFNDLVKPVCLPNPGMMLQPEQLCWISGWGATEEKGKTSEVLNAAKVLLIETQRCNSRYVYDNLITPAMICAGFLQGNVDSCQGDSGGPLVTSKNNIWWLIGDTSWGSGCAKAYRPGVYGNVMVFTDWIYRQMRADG
T3 sequence (P07711 114-333): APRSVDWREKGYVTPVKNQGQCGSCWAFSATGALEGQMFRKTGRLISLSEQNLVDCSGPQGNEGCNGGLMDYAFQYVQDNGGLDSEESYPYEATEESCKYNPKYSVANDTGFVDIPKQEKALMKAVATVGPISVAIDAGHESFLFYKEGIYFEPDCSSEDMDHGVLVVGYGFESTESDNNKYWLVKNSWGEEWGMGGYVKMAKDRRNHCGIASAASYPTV
T2 sequence (P09958 108-794): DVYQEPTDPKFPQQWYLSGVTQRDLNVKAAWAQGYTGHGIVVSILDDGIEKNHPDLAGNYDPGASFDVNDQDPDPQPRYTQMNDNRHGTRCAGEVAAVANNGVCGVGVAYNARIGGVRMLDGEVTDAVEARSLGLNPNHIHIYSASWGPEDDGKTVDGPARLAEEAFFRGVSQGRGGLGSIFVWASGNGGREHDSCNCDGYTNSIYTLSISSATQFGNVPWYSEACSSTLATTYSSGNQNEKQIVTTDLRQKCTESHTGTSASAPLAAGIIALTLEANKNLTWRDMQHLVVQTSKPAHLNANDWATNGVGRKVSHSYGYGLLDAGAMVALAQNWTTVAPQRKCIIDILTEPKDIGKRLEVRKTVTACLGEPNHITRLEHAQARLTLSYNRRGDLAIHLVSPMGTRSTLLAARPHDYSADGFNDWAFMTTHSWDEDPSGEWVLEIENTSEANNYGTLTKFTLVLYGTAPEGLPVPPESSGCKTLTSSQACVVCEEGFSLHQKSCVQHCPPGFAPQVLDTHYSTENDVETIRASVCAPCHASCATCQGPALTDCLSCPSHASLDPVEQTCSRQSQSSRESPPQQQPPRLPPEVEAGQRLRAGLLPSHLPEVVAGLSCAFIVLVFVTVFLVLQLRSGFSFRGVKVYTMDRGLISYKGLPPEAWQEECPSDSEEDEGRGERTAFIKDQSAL
T5 sequence (P05981 whole entry): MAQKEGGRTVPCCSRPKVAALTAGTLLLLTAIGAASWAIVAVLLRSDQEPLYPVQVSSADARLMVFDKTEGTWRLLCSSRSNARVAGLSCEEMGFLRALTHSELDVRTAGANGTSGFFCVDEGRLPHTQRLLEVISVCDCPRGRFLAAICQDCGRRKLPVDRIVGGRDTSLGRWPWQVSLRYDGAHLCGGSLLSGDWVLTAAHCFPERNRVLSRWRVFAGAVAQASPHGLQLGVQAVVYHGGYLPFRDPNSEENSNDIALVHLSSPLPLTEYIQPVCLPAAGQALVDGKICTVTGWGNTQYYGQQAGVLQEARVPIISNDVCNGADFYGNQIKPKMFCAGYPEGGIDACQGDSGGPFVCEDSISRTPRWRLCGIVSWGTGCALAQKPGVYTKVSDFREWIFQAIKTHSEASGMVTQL

With `CS(=O)(=O)NC(CCC(N)=O)C(=O)NC(Cc1ccccc1)C(=O)NC(CCCNC(=N)N)C(=O)c1nc2ccccc2s1` (stereo not shown) [Compound N-0385, Ms-QFR-kbt] the “TMPRSS2 activity (%)” value ([1]; Figure 1B, single experiments N1-N3) was 12.847% and 18.5887% and 21.0267%, the inhibition at 0.01 µM [1] was 83% and the Ki [2] was 0.0266 ± 0.0088 µM. The Ki [3] was > 10 µM, the Ki [4] was 6.29 ± 3.61 µM and the Nucleocapsid [5] was 1.14 and 1.542. The dsRNA [5] was 2.011 and 2.808, the EC50 [5] was 0.0028 ± 0.0014 µM and the inhibition at 0.1 µM [5] was > 99%. The “Figure 2b dose-response, Mean” value ([5]; log [C] (nM) 0.20412) was 56.2346, the “Figure 2b dose-response, Mean” value ([5]; log [C] (nM) 0.90309) was 18.4653 and the “Figure 2b dose-response, Mean” value ([5]; log [C] (nM) 1.60206) was 7.161. For the same compound, the “Figure 2b dose-response, Mean” value ([5]; log [C] (nM) 2.30103) was 5.446, the “Figure 2b dose-response, Mean” value ([5]; log [C] (nM) 3) was 1.469 and the “Figure 2b dose-response, Mean” value ([5]; log [C] (nM) -0.49485) was 74.438. The “Figure 2b dose-response, Mean” value ([5]; log [C] (nM) -1.19382) was 85.6866, the “infection, dose response Figure 3c (nucleocapsid)” value (“infection, dose response Figure 3c” for short) ([6]; log [C] (nM) 0.20412) was 60.9172 and 87.9076 and 85.6813 and 84.0612 and the “infection, dose response Figure 3d (dsRNA)” value (“infection … (dsRNA)” for short) ([6]; log [C] (nM) 0.20412) was 68.4547 and 86.2131 and 100. The “infection … (dsRNA)” value ([6]; log [C] (nM) 3) was 5.293 and 4.1962, the “infection, dose response Figure 3c” value ([6]; log [C] (nM) -0.49485) was 94.4352 and 99.5627 and 82.7139 and the “infection … (dsRNA)” value ([6]; log [C] (nM) -0.49485) was 78.2794 and 100. The “infection, dose response Figure 3c” value ([6]; log [C] (nM) -1.19382) was 98.0243 and 101.283 and 99.1734 and 90.3686, the “infection … (dsRNA)” value ([6]; log [C] (nM) -1.19382) was 100 and 84.9713 and the CC50 at 24 h ([7]; Calu-3 lung epithelial cells, n = 2, read-out: CC50 in Calu-3 cells) was 3470 µM. The inhibition at 0.1 µM ([8]; Severe acute respiratory syndrome coronavirus 2, read-out: inhibition of SARS-CoV-2 infection in colonoids) was > 99% and the “inhibition of SARS-CoV-2 infection in colonoids” value [8] was “complete inhibition”.

For `N=C(N)NCCCCC(=O)N[C@@H](CCC(=O)O)C(=O)N[C@@H](Cc1ccccc1)C(=O)N[C@@H](CCCNC(=N)N)C(=O)c1nc2ccccc2s1` [Compound N-0438, (H)REFR-kbt], the TMPRSS2 relative activity ([1]; 1.60E-10 M) was 86.6686 and 86.7823, the TMPRSS2 relative activity ([1]; 2.00E-08 M) was 4.266 and 6.221 and the TMPRSS2 relative activity ([1]; 3.20E-11 M) was 102.504 and 103.881. For the same compound, the TMPRSS2 relative activity ([1]; 4.00E-09 M) was 35.2539 and 37.178, the TMPRSS2 relative activity ([1]; 8.00E-10 M) was 70.1907 and 73.6892 and the IC50 ([1]; TMPRSS2, mean of independent experiments, Figure 1C, read-out: IC50 Mean) was 0.00517 µM. For the same compound, the inhibition at 0.01 µM [1] was 84%, the IC50 ([1]; Vero E6 cells expressing human TMPRSS2, 24 h with fluorogenic substrate, read-out: TMPRSS2 IC50 ± SD) was 0.0052 ± 0.0054 µM and the Ki [9] was 0.00111 ± 9e-05 µM. For the same compound, the Ki [10] was 0.00052 ± 7e-05 µM, the Ki [2] was 0.031 ± 0.003 µM and the Ki [11] was > 10 µM. The Ki [3] was > 10 µM, the Ki [4] was > 10 µM and the Nucleocapsid [5] was 4.61 and 18.8861. The dsRNA [5] was 14.5614 and 27.1131, the EC50 [5] was 0.0357 ± 0.0245 µM and the inhibition at 0.1 µM [5] was > 88%. The “Figure 2b dose-response, Mean” value ([5]; log [C] (nM) 0.20412) was 87.8313, the “Figure 2b dose-response, Mean” value ([5]; log [C] (nM) 0.90309) was 62.8653 and the “Figure 2b dose-response, Mean” value ([5]; log [C] (nM) 1.60206) was 44.3084. For the same compound, the “Figure 2b dose-response, Mean” value ([5]; log [C] (nM) 2.30103) was 28.0955, the “Figure 2b dose-response, Mean” value ([5]; log [C] (nM) 3) was 3.627 and the “Figure 2b dose-response, Mean” value ([5]; log [C] (nM) -0.49485) was 89.252. The “Figure 2b dose-response, Mean” value ([5]; log [C] (nM) -1.19382) was 94.5427, the viability at 24 h, 3000 µM ([7]; Calu-3 cells, Log [inhibitor] -2.52, read-out: % of Viability, Average (n=2)) was 25.5% and the viability at 24 h, 300 µM [7, 13] was 87.5%. The viability at 24 h, 300 µM [7, 14] was 86%, the viability at 24 h, 100 µM [7, 13] was 86% and the viability at 24 h, 100 µM [7, 14] was 81%. The viability at 24 h, 30 µM [7, 13] was 89%, the viability at 24 h, 30 µM [7, 14] was 89% and the viability at 24 h, 10 µM [7, 13] was 89%. The viability at 24 h, 10 µM [7, 14] was 93%, the viability at 24 h, 3 µM [7, 13] was 99% and the viability at 24 h, 3 µM [7, 14] was 101%. The viability at 24 h, 0.3 µM [7, 13] was 108%, the viability at 24 h, 0.3 µM [7, 14] was 111% and the viability at 24 h, 0.03 µM [7, 13] was 103%. The viability at 24 h, 0.03 µM [7, 14] was 107%, the viability at 24 h, 0.003 µM [7, 13] was 104% and the viability at 24 h, 0.003 µM [7, 14] was 109%. For the same compound, the CC50 at 24 h ([7]; Calu-3 cells, unit not given for CC50, read-out: CC50) was 980 µM, the “% of Viability” value ([12]; Log [inhibitor] -2.52) was 12% and 39% and the “% of Viability” value ([12]; Log [inhibitor] -4.00) was 91%. For the same compound, the “% of Viability” value ([12]; Log [inhibitor] -5.00) was 85% and the “% of Viability” value ([12]; Log [inhibitor] -5.52) was 97%.
